The structures appear in SMILES notation.

For one experiment, the system named is HBsAg. Kind of experiment: HBsAg assay: inhibition of HBsAg in HepG2.2.15 cells (chemiluminescence immunoassay of supernatant). The format is cell-based, hepatitis B virus. The settings on record: Hepatitis B virus, HepG2.2.15, 144 h, read-out: sAg EC50, HepG2.2.15 cells; HBsAg in supernatant at day 6 after exposure to compound; 0.5% DMSO. Summed up: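 HepG2.2.15 cells treated with serially diluted compounds (0.5% DMSO), medium and compound refreshed after 2–3 days, supernatant harvested at day 6. Secreted HBsAg measured by chemiluminescence immunoassay; EC50 from dose-response curves, with parallel CellTiter-Glo viability at 5,000 cells/well.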
Turning to `Fc1cc([C@@H]2C[C@H]2c2cnc(-c3ncccn3)nc2)cc(-n2cccn2)c1F` (single isomer, unassigned) [Example 253, trans-5-(2-(3,4-difluoro-5-(1H-pyrazol-1-yl)phenyl)cyclopropyl)-2,2′-bipyrimidine], the 50% effective concentration (EC50) amounted to 29 nM.

In the case of `CCOC(=O)C1C(c2cnc(-c3ncccn3)nc2)C1c1cc(F)c(F)c(OC)c1` (stereo not drawn) [Example 263, trans-Ethyl 2-([2,2′-bipyrimidin]-5-yl)-3-(3,4-difluoro-5-methoxyphenyl)cyclopropane-1-carboxylate], the concentration for a half-maximal effect (EC50) is 12000 nM.

Staying with this experiment, now noted: read-out: sAg EC50; HepG2.2.15 cells; HBsAg in supernatant at day 6 after exposure to compound; 0.5% DMSO.
For the compound `CC1(C)CCN(c2cc(C3CC3c3cnc(-c4ncccn4)nc3)cc(F)c2F)C1` (single isomer, unassigned) [Example 220, trans-5-(2-(3-(3,3-Dimethylpyrrolidin-1-yl)-4,5-difluorophenyl)cyclopropyl)-2,2′-bipyrimidine], the concentration giving a half-maximal response (EC50) worked out at 30 nM.

For the compound `CC1(C)CCN(c2cc(C3CC3c3cnc(-c4ncccn4)nc3)cc(F)c2F)C1` (single isomer, unassigned) [Example 221, trans-5-(2-(3-(3,3-Dimethylpyrrolidin-1-yl)-4,5-difluorophenyl)cyclopropyl)-2,2′-bipyrimidine], the concentration for a half-maximal effect (EC50) was 320 nM.

Turning to `Fc1cc(C2CC2c2cnc(-c3ncccn3)nc2)cc(N2CCC3(COC3)C2)c1F` (single isomer, unassigned) [Example 222, trans-6-(5-(2-([2,2′-Bipyrimidin]-5-yl)cyclopropyl)-2,3-difluorophenyl)-2-oxa-6-azaspiro[3.4]octane], the EC50 stood at 190 nM.

As to `Fc1cc(C2CC2c2cnc(-c3ncccn3)nc2)cc(N2CCC3(COC3)C2)c1F` (single isomer, unassigned) [Example 223, trans-6-(5-(2-([2,2′-Bipyrimidin]-5-yl)cyclopropyl)-2,3-difluorophenyl)-2-oxa-6-azaspiro[3.4]octane], the 50% effective concentration (EC50) worked out at 10 nM.

On to `CC(=O)N1CC[C@H](Nc2cc(C3CC3c3cnc(-c4ncccn4)nc3)cc(F)c2F)C1` (single isomer, unassigned) [Example 224], for which the EC50 came out at 5000 nM.

`CC(=O)N1CC[C@H](Nc2cc(C3CC3c3cnc(-c4ncccn4)nc3)cc(F)c2F)C1` (single isomer, unassigned) [Example 225]: the concentration giving a half-maximal response (EC50) turned out to be 350 nM.

In the case of `CC(=O)N1CC[C@@H](Nc2cc(C3CC3c3cnc(-c4ncccn4)nc3)cc(F)c2F)C1` (single isomer, unassigned) [Example 226], the EC50 was 1000 nM.

With `CC(=O)N1CC[C@@H](Nc2cc(C3CC3c3cnc(-c4ncccn4)nc3)cc(F)c2F)C1` (single isomer, unassigned) [Example 227], the EC50 is 270 nM.

For the compound `CN1CC[C@H](Nc2cc(C3CC3c3cnc(-c4ncccn4)nc3)cc(F)c2F)C1` (single isomer, unassigned) [Example 228], the concentration for a half-maximal effect (EC50) worked out at 15000 nM.

In the case of `CN1CC[C@H](Nc2cc(C3CC3c3cnc(-c4ncccn4)nc3)cc(F)c2F)C1` (single isomer, unassigned) [Example 229], the half-maximal effective concentration (EC50) was found to be 3000 nM.

Turning to `CN1CC[C@@H](Nc2cc(C3CC3c3cnc(-c4ncccn4)nc3)cc(F)c2F)C1` (single isomer, unassigned) [Example 230], the EC50 is 7000 nM.

Take `CN1CC[C@@H](Nc2cc(C3CC3c3cnc(-c4ncccn4)nc3)cc(F)c2F)C1` (single isomer, unassigned) [Example 231]: the EC50 amounted to 750 nM.

For the compound `Fc1cc(C2CC2c2cnc(-c3ncccn3)nc2)cc(OC2CCCC2)c1F` (single isomer, unassigned) [Example 245, trans-5-(2-(3-(Cyclopentyloxy)-4,5-difluorophenyl)cyclopropyl)-2,2′-bipyrimidine], the EC50 stood at 5000 nM.

As to `Fc1cc(C2CC2c2cnc(-c3ncccn3)nc2)cc(OC2CCCC2)c1F` (single isomer, unassigned) [Example 246, trans-5-(2-(3-(Cyclopentyloxy)-4,5-difluorophenyl)cyclopropyl)-2,2′-bipyrimidine], the concentration giving a half-maximal response (EC50) amounted to 150 nM.

In the case of `Fc1cc(C2CC2c2cnc(-c3ncccn3)nc2)cc(O[C@@H]2CCOC2)c1F` (single isomer, unassigned) [Example 247], the EC50 is 76 nM.

As for `Fc1cc(C2CC2c2cnc(-c3ncccn3)nc2)cc(O[C@@H]2CCOC2)c1F` (single isomer, unassigned) [Example 248], the EC50 was found to be 1000 nM.

Regarding `Fc1cc(C2CC2c2cnc(-c3ncccn3)nc2)cc(O[C@H]2CCOC2)c1F` (single isomer, unassigned) [Example 249], the EC50 was 800 nM.

On to `Fc1cc(C2CC2c2cnc(-c3ncccn3)nc2)cc(O[C@H]2CCOC2)c1F` (single isomer, unassigned) [Example 250], for which the concentration for a half-maximal effect (EC50) is 76 nM.

With `COc1cnn(-c2cc(C3CC3c3cnc(-c4ncccn4)nc3)cc(F)c2F)c1` (single isomer, unassigned) [Example 251, trans-5-(2-(3,4-Difluoro-5-(4-methoxy-1H-pyrazol-1-yl)phenyl)cyclopropyl)-2,2′-bipyrimidine], the EC50 came out at 41 nM.

Turning to `COc1cnn(-c2cc(C3CC3c3cnc(-c4ncccn4)nc3)cc(F)c2F)c1` (single isomer, unassigned) [Example 252, trans-5-(2-(3,4-Difluoro-5-(4-methoxy-1H-pyrazol-1-yl)phenyl)cyclopropyl)-2,2′-bipyrimidine], the half-maximal effective concentration (EC50) was 14 nM.

As to `Fc1cc([C@@H]2C[C@H]2c2cnc(-c3ncccn3)nc2)cc(-n2cccn2)c1F` (single isomer, unassigned) [Example 254, trans-5-(2-(3,4-Difluoro-5-(1H-pyrazol-1-yl)phenyl)cyclopropyl)-2,2′-bipyrimidine], the EC50 came to 47 nM.

Turning to `Fc1cc(C2CC2c2cnc(-c3ncccn3)nc2)cc(N2CC(c3ccccc3)C2)c1F` (single isomer, unassigned) [Example 255, trans-5-(2-(3,4-Difluoro-5-(3-phenylazetidin-1-yl)phenyl)cyclopropyl)-2,2′-bipyrimidine], the 50% effective concentration (EC50) amounted to 780 nM.

With `Fc1cc(C2CC2c2cnc(-c3ncccn3)nc2)cc(N2CC(c3ccccc3)C2)c1F` (single isomer, unassigned) [Example 256, trans-5-(2-(3,4-Difluoro-5-(3-phenylazetidin-1-yl)phenyl)cyclopropyl)-2,2′-bipyrimidine], the half-maximal effective concentration (EC50) was determined as 28 nM.

On to `Fc1cn(-c2cc(C3CC3c3cnc(-c4ncccn4)nc3)cc(F)c2F)cc1F` (single isomer, unassigned) [Example 257, trans-5-(2-(3-(3,4-Difluoro-1H-pyrrol-1-yl)-4,5-difluorophenyl)cyclopropyl)-2,2′-bipyrimidine], for which the EC50 was 140 nM.

For `Fc1cn(-c2cc(C3CC3c3cnc(-c4ncccn4)nc3)cc(F)c2F)cc1F` (single isomer, unassigned) [Example 258, trans-5-(2-(3-(3,4-Difluoro-1H-pyrrol-1-yl)-4,5-difluorophenyl)cyclopropyl)-2,2′-bipyrimidine], the concentration for a half-maximal effect (EC50) turned out to be 14 nM.

Take `Oc1cnn(-c2cc(C3CC3c3cnc(-c4ncccn4)nc3)cc(F)c2F)c1` (single isomer, unassigned) [Example 259, trans-1-(5-(2-([2,2′-Bipyrimidin]-5-yl)cyclopropyl)-2,3-difluorophenyl)-1H-pyrazol-4-ol]: the EC50 worked out at 2000 nM.

For the compound `Oc1cnn(-c2cc(C3CC3c3cnc(-c4ncccn4)nc3)cc(F)c2F)c1` (single isomer, unassigned) [Example 260, trans-1-(5-(2-([2,2′-Bipyrimidin]-5-yl)cyclopropyl)-2,3-difluorophenyl)-1H-pyrazol-4-ol], the 50% effective concentration (EC50) was 670 nM.

Turning to `Cc1cn(-c2cc(C3CC3c3cnc(-c4ncccn4)nc3)cc(F)c2F)cn1` (single isomer, unassigned) [Example 261, trans-5-(2-(3,4-Difluoro-5-(4-methyl-1H-imidazol-1-yl)phenyl)cyclopropyl)-2,2′-bipyrimidine], the concentration for a half-maximal effect (EC50) was found to be 670 nM.

For the compound `Cc1cn(-c2cc(C3CC3c3cnc(-c4ncccn4)nc3)cc(F)c2F)cn1` (single isomer, unassigned) [Example 262, trans-5-(2-(3,4-Difluoro-5-(4-methyl-1H-imidazol-1-yl)phenyl)cyclopropyl)-2,2′-bipyrimidine], the EC50 was 47 nM.

For `COCCCn1ncc2c(C3CC3c3cnc(-c4ncccn4)nc3)cc(F)c(F)c21` (single isomer, unassigned) [Example 265, trans-4-(2-([2,2′-Bipyrimidin]-5-yl)cyclopropyl)-6,7-difluoro-1-(3-methoxypropyl)-1H-indazole], the EC50 came to 61 nM.

Regarding `COCCCn1ncc2c(C3CC3c3cnc(-c4ncccn4)nc3)cc(F)c(F)c21` (single isomer, unassigned) [Example 266, trans-4-(2-([2,2′-Bipyrimidin]-5-yl)cyclopropyl)-6,7-difluoro-1-(3-methoxypropyl)-1H-indazole], the EC50 was found to be 2 nM.

For the compound `COCCCn1cc2c(F)cc(C3CC3c3cnc(-c4ncccn4)nc3)cc2n1` (single isomer, unassigned) [Example 268, trans-6-(2-([2,2′-Bipyrimidin]-5-yl)cyclopropyl)-4-fluoro-2-(3-methoxypropyl)-2H-indazole], the EC50 was determined as 10 nM.

Take `COCCCn1cc2c(F)cc(C3CC3c3cnc(-c4ncccn4)nc3)cc2n1` (single isomer, unassigned) [Example 269, trans-6-(2-([2,2′-Bipyrimidin]-5-yl)cyclopropyl)-4-fluoro-2-(3-methoxypropyl)-2H-indazole]: the concentration for a half-maximal effect (EC50) is 46 nM.

The record behind these values is patent US20230083973A1, “SUBSTITUTED CYCLOPROPYL-2,2'-BIP[…], ANALOGUES THEREOF, AND METHODS USING SAME” (priority 2019, published 2023).
